Read-outs that look alike come from different tables or passages of the source.
How the values were obtained:
Assay type in all cases: cell-based
ERα [1] = molecular target: T1, ERα (Homo sapiens, UniProt P03372); experiment: Counterscreening, Firefly signal with ERα transient transfection (Firefly_ERa); conditions: 10 uM
T1 construct: expressed in transfected cells
T1 sequence (P03372 1-595): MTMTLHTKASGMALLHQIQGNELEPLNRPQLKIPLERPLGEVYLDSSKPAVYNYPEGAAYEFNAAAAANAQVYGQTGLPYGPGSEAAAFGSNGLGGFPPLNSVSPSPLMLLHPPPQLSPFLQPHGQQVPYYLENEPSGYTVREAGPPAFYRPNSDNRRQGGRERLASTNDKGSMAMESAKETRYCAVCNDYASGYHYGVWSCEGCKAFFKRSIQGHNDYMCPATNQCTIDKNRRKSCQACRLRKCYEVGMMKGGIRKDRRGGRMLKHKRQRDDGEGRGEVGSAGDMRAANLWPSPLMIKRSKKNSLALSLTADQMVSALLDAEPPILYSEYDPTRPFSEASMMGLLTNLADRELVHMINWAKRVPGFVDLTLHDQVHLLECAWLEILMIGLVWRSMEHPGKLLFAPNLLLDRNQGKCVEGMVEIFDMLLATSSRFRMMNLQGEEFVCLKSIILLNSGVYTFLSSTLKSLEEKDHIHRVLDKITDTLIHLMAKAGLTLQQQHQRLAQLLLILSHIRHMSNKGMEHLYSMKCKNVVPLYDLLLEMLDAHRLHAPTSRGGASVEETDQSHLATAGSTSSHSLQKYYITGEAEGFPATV
Procedure: The methodology for screening candidate compounds as NR2F6 agonists was as follows: For primary screening, hit criteria was ACT %>DMSO control+5*SD (DSO control) at 10 μM, or any compound with S/B>2. For rescreening, hit criteria was ACT %>DMSO control+3*SD (DSO control) in each replicate at 10 μM. For counterscreening, hit criteria was mean ACT<DMSO control+3*SD (DMSO control) with ERα transient transfection in duplicate at 10 μM.

Renilla = Renilla signal in NR2F6 agonist screening, cmpd/DMSO; conditions: for fold induction at 2 µM / fold induction at 10 µM / fold induction at 40 µM: Renilla, read-out: Renilla F4, cmpd/DMSO (mean)
ERα [2] = molecular target: T1, ERα; experiment: Counterscreening, Firefly signal with ERα transient transfection (Firefly_ERa)
NR2F6 = molecular target: T2, NR2F6 (Homo sapiens, UniProt P10588); experiment: NR2F6 agonist screening, Firefly signal cmpd/DMSO
T2 construct: expressed in transfected cells; also transient transfection
T2 sequence (P10588 1-404): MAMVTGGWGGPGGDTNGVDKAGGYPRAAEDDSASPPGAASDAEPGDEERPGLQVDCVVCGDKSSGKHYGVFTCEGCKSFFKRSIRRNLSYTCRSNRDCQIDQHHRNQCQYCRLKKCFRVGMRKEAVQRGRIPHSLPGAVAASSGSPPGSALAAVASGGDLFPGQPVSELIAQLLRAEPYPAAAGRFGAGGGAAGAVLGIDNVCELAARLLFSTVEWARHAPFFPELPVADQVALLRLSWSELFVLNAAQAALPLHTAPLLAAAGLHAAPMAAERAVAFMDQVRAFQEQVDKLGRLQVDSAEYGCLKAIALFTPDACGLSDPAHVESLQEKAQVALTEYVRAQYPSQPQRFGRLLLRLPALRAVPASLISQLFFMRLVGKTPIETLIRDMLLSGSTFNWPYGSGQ

Renilla_ERa = experiment: Renilla signal in ERα counterscreen (Renilla_ERa); conditions: for fold induction at 2 µM / fold induction at 10 µM / fold induction at 40 µM: read-out: Renilla ERalpha transient, cmpd/DMSO (mean)

SMILES | Firefly ERalpha transient, cmpd/DMSO (mean) (ERα [1]; Table 15) | Firefly ERalpha transient, cmpd/DMSO (mean) (ERα [2]; Table 15, 2 uM) | Firefly ERalpha transient, cmpd/DMSO (mean) (ERα [2]; Table 15, 40 uM) | Firefly F4, cmpd/DMSO (mean) (NR2F6; Table 15, 2 uM) | Firefly F4, cmpd/DMSO (mean) (NR2F6; Table 15, 10 uM) | Firefly F4, cmpd/DMSO (mean) (NR2F6; Table 15, 40 uM) | Firefly ERalpha transient, cmpd/DMSO (mean) (ERα [1]) | fold induction at 2 µM (Renilla; 2 uM, clone F4) | fold induction at 10 µM (Renilla; 10 uM, clone F4) | fold induction at 40 µM (Renilla; 40 uM, clone F4) | Firefly ERalpha transient, cmpd/DMSO (mean) (ERα [2]; 2 uM) | Firefly ERalpha transient, cmpd/DMSO (mean) (ERα [2]; 40 uM) | Firefly F4, cmpd/DMSO (mean) (NR2F6; 2 uM, clone F4) | Firefly F4, cmpd/DMSO (mean) (NR2F6; 10 uM, clone F4) | Firefly F4, cmpd/DMSO (mean) (NR2F6; 40 uM, clone F4) | fold induction at 2 µM (Renilla_ERa; 2 uM) | fold induction at 10 µM (Renilla_ERa; 10 uM) | fold induction at 40 µM (Renilla_ERa; 40 uM) | further results
COc1ccc(-c2noc(Cn3ncc4ccccc4c3=O)n2)cc1 [Compound Z7] | 2.0 | 1.3 | 1.5 | 0.9 | 1.2 | 1.0 | – | – | – | – | – | – | – | – | – | – | – | – | fold induction at 2 µM (Renilla; Table 15, 2 uM): 1.3; fold induction at 10 µM (Renilla; Table 15, 10 uM): 1.1; fold induction at 40 µM (Renilla; Table 15, 40 uM): 1.1; fold induction at 2 µM (Renilla_ERa; Table 15, 2 uM): 1.1; fold induction at 10 µM (Renilla_ERa; Table 15, 10 uM): 1.1; fold induction at 40 µM (Renilla_ERa; Table 15, 40 uM): 1
COc1cccc(-c2noc(Cn3ncc4ccccc4c3=O)n2)c1 [Compound Z6] | 2.2 | 2.0 | 1.1 | 1.4 | 1.4 | 1.1 | – | – | – | – | – | – | – | – | – | – | – | – | Renilla F4, cmpd/DMSO (mean) (Renilla; Table 15, 2 uM): 1.1; Renilla F4, cmpd/DMSO (mean) (Renilla; Table 15, 10 uM): 1.1; Renilla F4, cmpd/DMSO (mean) (Renilla; Table 15, 40 uM): 0.9; Renilla ERalpha transient, cmpd/DMSO (mean) (Renilla_ERa; Table 15, 2 uM): 1.1; Renilla ERalpha transient, cmpd/DMSO (mean) (Renilla_ERa; Table 15, 10 uM): 1.1; Renilla ERalpha transient, cmpd/DMSO (mean) (Renilla_ERa; Table 15, 40 uM): 0.9
N#Cc1c(C(F)(F)F)nc2ccc(Oc3ccccc3)cc2c1NCCc1ccc(Cl)cc1 [Compound Z52] | – | – | – | – | – | – | 0.4 | 0.8 | 0.5 | 0.6 | 0.7 | 0.7 | 0.6 | 0.7 | 0.7 | 1.1 | 0.8 | 0.7 | –
COc1cccc(-c2noc(Cn3ncc(Cl)cc3=O)n2)c1 [Compound Z4] | 1.4 | 1.5 | 0.8 | 1.5 | 1.2 | 0.8 | – | – | – | – | – | – | – | – | – | – | – | – | fold induction at 2 µM (Renilla; Table 15, 2 uM): 1.1; fold induction at 10 µM (Renilla; Table 15, 10 uM): 1.6; fold induction at 40 µM (Renilla; Table 15, 40 uM): 1.4; fold induction at 2 µM (Renilla_ERa; Table 15, 2 uM): 1.2; fold induction at 10 µM (Renilla_ERa; Table 15, 10 uM): 1.1; fold induction at 40 µM (Renilla_ERa; Table 15, 40 uM): 0.8
Cc1cc(C)c2ncc(C(=O)OC(C)C)c(NCCCN(C)C)c2c1 [Compound Z29] | – | – | – | – | – | – | 1.2 | 0.8 | 0.9 | 0.5 | 1.0 | 6.7 | 1.3 | 1.1 | 1.1 | 0.8 | 1.2 | 0.7 | –
CNC(=O)c1cnc2c(C)cc(C)cc2c1NCCCN(C)C [Compound Z30] | – | – | – | – | – | – | 1.1 | 1.1 | 1.1 | 0.7 | 1.4 | 1.4 | 1.4 | 1.1 | 1.2 | 1.1 | 1.1 | 1.6 | –
CCCNc1nc(N2CCOCC2)nc(N2CC3CC(C2)c2cccc(=O)n2C3)n1 (stereo not drawn) [Compound 37] | – | – | – | – | – | – | 1.4 | 0.9 | 1.2 | 1.3 | 1.1 | 1.2 | 1.3 | 1.1 | 1.3 | 1.1 | 1.1 | 1.1 | –
CCOC(=O)c1cnc2c(Cl)cc(Cl)cc2c1NCCCN(C)C [Compound Z35] | – | – | – | – | – | – | 2.2 | 1.1 | 2 | 0.7 | 2.6 | 7.2 | 1.9 | 1.5 | 1.2 | 1.1 | 1.3 | 0.9 | –
COc1ccc2nc(C(F)(F)F)c(C#N)c(NCCOc3ccc(Cl)cc3)c2c1 [Compound Z40] | – | – | – | – | – | – | 0.3 | 0.7 | 0.6 | 0.5 | 1.0 | 1.0 | 0.8 | 0.7 | 0.8 | 1 | 0.7 | 0.6 | –
CCOC(=O)c1cnc2c(Cl)cc(Cl)cc2c1NCCCN1CCCCC1 [Compound Z37] | – | – | – | – | – | – | 1.5 | 1 | 0.9 | 0.5 | 1.1 | 1.2 | 1.0 | 1.4 | 0.7 | 1 | 1.7 | 0.7 | –
Cc1ccc(CCCNc2c(C#N)c(C(F)(F)F)nc3ccc(Oc4ccccc4)cc23)cc1 [Compound Z42] | – | – | – | – | – | – | 1.8 | 1.2 | 0.9 | 0.7 | 1.5 | 1.1 | 0.9 | 0.9 | 0.6 | 1.1 | 0.9 | 0.7 | –
CC(=O)Nc1ccc(NS(C)(=O)=O)c2nonc12 [Compound Z15] | 1.1 | 0.9 | 1.1 | 1.0 | 0.5 | 0.9 | – | – | – | – | – | – | – | – | – | – | – | – | fold induction at 2 µM (Renilla; Table 15, 2 uM): 0.8; fold induction at 10 µM (Renilla; Table 15, 10 uM): 1.1; fold induction at 40 µM (Renilla; Table 15, 40 uM): 1; fold induction at 2 µM (Renilla_ERa; Table 15, 2 uM): 1; fold induction at 10 µM (Renilla_ERa; Table 15, 10 uM): 1; fold induction at 40 µM (Renilla_ERa; Table 15, 40 uM): 0.9

— patent US11377442B2, “Small molecule agonists and antagonists of NR2F6 activity” (ZANDER THERAPEUTICS, INC., priority 2016, dated 2022)
